# Molecular target: T1, USP7 (Homo sapiens, UniProt Q93009)
# T1 construct: USP7, construct USP7 (208-1102) 6*His, Viva Biotech; 6xHis (C); purchased Viva Biotech
# Test: USP7 Assay A (Ubitquin-Rhodamine 110 Assay)
# Format: biochemical
# Details: USP7 activity in USP7 assay A and B (table does not say which assay per compound); read-out: USP7_IC50
# Method in brief: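 Ub-Rh110 cleavage in 20 mM Tris-HCl pH 8.0 with 1 mM GSH, 0.03% BGG, 0.01% Triton X-100; compound preincubated with enzyme 30 min before substrate.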
# T1 sequence (Q93009 208-1102): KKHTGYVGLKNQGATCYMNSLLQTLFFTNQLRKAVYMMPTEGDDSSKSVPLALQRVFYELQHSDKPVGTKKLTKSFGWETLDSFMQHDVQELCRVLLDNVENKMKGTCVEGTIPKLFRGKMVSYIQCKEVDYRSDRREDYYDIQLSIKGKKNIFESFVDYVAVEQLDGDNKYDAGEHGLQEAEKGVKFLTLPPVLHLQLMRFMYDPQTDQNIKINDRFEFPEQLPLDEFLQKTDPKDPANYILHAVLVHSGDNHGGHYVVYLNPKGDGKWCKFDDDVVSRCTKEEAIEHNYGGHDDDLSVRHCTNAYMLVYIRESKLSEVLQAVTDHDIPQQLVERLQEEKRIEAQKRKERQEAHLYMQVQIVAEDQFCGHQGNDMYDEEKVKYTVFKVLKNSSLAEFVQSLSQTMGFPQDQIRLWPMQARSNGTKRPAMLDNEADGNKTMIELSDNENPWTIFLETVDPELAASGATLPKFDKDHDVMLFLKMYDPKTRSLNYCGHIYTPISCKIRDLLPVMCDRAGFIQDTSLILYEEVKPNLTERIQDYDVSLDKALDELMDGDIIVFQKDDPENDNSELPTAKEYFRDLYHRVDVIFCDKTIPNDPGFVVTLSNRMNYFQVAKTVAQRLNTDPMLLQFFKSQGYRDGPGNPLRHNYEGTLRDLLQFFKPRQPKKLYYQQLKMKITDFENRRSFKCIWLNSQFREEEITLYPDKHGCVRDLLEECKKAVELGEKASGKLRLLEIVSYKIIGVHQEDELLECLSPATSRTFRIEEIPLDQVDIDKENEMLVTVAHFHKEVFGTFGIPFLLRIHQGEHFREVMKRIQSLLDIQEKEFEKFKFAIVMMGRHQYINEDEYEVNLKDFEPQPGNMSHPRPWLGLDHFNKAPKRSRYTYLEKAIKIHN
row,SMILES,IC50 [nM]
1,O=C(C1CCC(n2cccn2)CC1)N1CCC(O)(Cn2cnc3c(cnn3-c3ccc(F)cc3)c2=O)CC1 (stereo not drawn) [Compound I-548],1000 to 10000
2,O=C(C1CCC(n2cccn2)CC1)N1CCC(O)(Cn2cnc3c(cnn3-c3ccc(F)cc3)c2=O)CC1 (stereo not drawn) [Compound I-549],1000 to 10000
3,O=C(c1ccc(-c2cnn3c2OCC3)cc1)N1CCC(O)(Cn2cnc3c(cnn3-c3ccc(F)cc3)c2=O)CC1 [Compound I-550],200 to 1000
4,O=C(c1ccc(-c2cnn3c2OCCC3)cc1)N1CCC(O)(Cn2cnc3c(cnn3-c3ccc(F)cc3)c2=O)CC1 [Compound I-551],200 to 1000
5,O=C(c1ccc(-c2cnn3c2NCCC3)cc1)N1CCC(O)(Cn2cnc3c(cnn3-c3ccc(F)cc3)c2=O)CC1 [Compound I-552],200 to 1000
6,Nc1cc(Cl)ccc1C(=O)N1CCC(O)(Cn2cnc3c(cnn3-c3ccc(F)cc3)c2=O)CC1 [Compound I-554],1000 to 10000
7,O=C(c1cnc(N2CCOCC2)o1)N1CCC(O)(Cn2cnc3c(cnn3-c3ccc(F)cc3)c2=O)CC1 [Compound I-555],200 to 1000
8,O=C(c1nnc(C2CC2)o1)N1CCC(O)(Cn2cnc3c(cnn3-c3ccc(F)cc3)c2=O)CC1 [Compound I-556],1000 to 10000
9,O=C(c1ncoc1Cc1ccccc1)N1CCC(O)(Cn2cnc3c(cnn3-c3ccc(F)cc3)c2=O)CC1 [Compound I-557],200 to 1000
10,O=C(c1cccn1Cc1ccc(F)cc1)N1CCC(O)(Cn2cnc3c(cnn3-c3ccc(F)cc3)c2=O)CC1 [Compound I-558],200 to 1000
11,O=C(c1cccn1Cc1c(F)cccc1F)N1CCC(O)(Cn2cnc3c(cnn3-c3ccc(F)cc3)c2=O)CC1 [Compound I-559],1000 to 10000
12,O=C(c1cccn1Cc1cccc(F)c1)N1CCC(O)(Cn2cnc3c(cnn3-c3ccc(F)cc3)c2=O)CC1 [Compound I-560],200 to 1000
13,O=C(c1cccn1Cc1ccccc1F)N1CCC(O)(Cn2cnc3c(cnn3-c3ccc(F)cc3)c2=O)CC1 [Compound I-561],200 to 1000
14,Cn1cc(Oc2ccc(C(=O)N3CCC(O)(Cn4cnc5c(cnn5-c5ccc(F)cc5)c4=O)CC3)cc2)cn1 [Compound I-562],1000 to 10000
15,Cc1cc(Oc2ccc(C(=O)N3CCC(O)(Cn4cnc5c(cnn5-c5ccc(F)cc5)c4=O)CC3)cc2)no1 [Compound I-563],1000 to 10000
16,O=C(c1cn[nH]c1Cc1ccccc1)N1CCC(O)(Cn2cnc3c(cnn3-c3ccc(F)cc3)c2=O)CC1 [Compound I-603],< 200
17,CN1CC2CC1CN2c1ccc(C(=O)N2CCC(O)(Cn3cnc4c(cnn4-c4ccc(F)cc4)c3=O)CC2)cc1 (stereo not drawn) [Compound I-604],1000 to 10000
18,O=C(N1CCC(Oc2ccccn2)CC1)N1CCC(O)(Cn2cnc3c(cnn3-c3ccc(F)cc3)c2=O)CC1 [Compound I-610],1000 to 10000
19,O=C(c1ccc(-n2ncc3c2CNC3)cc1)N1CCC(O)(Cn2cnc3c(cnn3-c3ccc(F)cc3)c2=O)CC1 [Compound I-611],1000 to 10000
20,O=C(c1ccc(-n2cc(CO)cn2)cc1)N1CCC(O)(Cn2cnc3c(cnn3-c3ccc(F)cc3)c2=O)CC1 [Compound I-612],1000 to 10000
21,NCc1cnn(-c2ccc(C(=O)N3CCC(O)(Cn4cnc5c(cnn5-c5ccc(F)cc5)c4=O)CC3)cc2)c1 [Compound I-613],1000 to 10000
22,O=C(c1cnc(C2CC2)o1)N1CCC(O)(Cn2cnc3c(cnn3-c3ccc(C4CC4)cc3)c2=O)CC1 [Compound I-629],< 200
23,O=C(c1cnc(N2CCOCC2)o1)N1CCC(O)(Cn2cnc3c(cnn3-c3ccc(-c4ccccc4)cc3)c2=O)CC1 [Compound I-643],200 to 1000
24,O=C(C[C@H](C(F)F)n1cccn1)N1CCC(O)(Cn2cnc3c(cnn3-c3ccc(-c4ccccc4)cc3)c2=O)CC1 [Compound I-645],200 to 1000
25,O=C(C[C@@H](C(F)F)n1cccn1)N1CCC(O)(Cn2cnc3c(cnn3-c3ccc(-c4ccccc4)cc3)c2=O)CC1 [Compound I-646],1000 to 10000

# Same assay, conditions: USP7 assay A and B (table does not say which assay per compound); read-out: USP7_IC50
row,SMILES,IC50 [nM]
1,C=CC(=O)N1CC[C@@H]1C(=O)N1CCC(O)(Cn2cnc3c(cnn3-c3ccc(F)cc3)c2=O)CC1 [Compound I-574],200 to 1000
2,C=CC(=O)NC1CCC(C(=O)N2CCC(O)(Cn3cnc4c(cnn4-c4ccc(F)cc4)c3=O)CC2)CC1 (stereo not drawn) [Compound I-576],1000 to 10000
3,C=CC(=O)N1CC[C@]1(C)C(=O)N1CCC(O)(Cn2cnc3c(cnn3-c3ccc(F)cc3)c2=O)CC1 [Compound I-580],200 to 1000
4,C#CC(=O)N(C)C1CC(C(=O)N2CCC(O)(Cn3cnc4c(cnn4-c4ccc(F)cc4)c3=O)CC2)C1 (stereo not drawn) [Compound I-589],1000 to 10000
5,CC1(O)CCN(Cc2cccc(C(=O)N3CCC(O)(Cn4cnc5c(cnn5-c5ccc(F)cc5)c4=O)CC3)c2)C1 (stereo not drawn) [Compound I-601],> 10000
6,CN1CCC(c2ccc(C(=O)N3CCC(O)(Cn4cnc5c(cnn5-c5ccc(F)cc5)c4=O)CC3)cc2)CC1 [Compound I-605],> 10000
7,CN1CCN(c2ccc(C(=O)N3CCC(O)(Cn4cnc5c(cnn5-c5ccc(F)cc5)c4=O)CC3)cc2)CC1 [Compound I-606],1000 to 10000
8,COc1ccc(C(=O)N2CCC(O)(C(C)n3cnc4c(cnn4-c4ccc(F)cc4)c3=O)CC2)cc1 (stereo not drawn) [Compound I-614],> 10000
9,COc1ccc(-n2ncc3c(=O)n(CC4(O)CCN(C(=O)c5ccc(F)cc5)CC4)cnc32)cc1 [Compound I-620],200 to 1000
10,COc1cccc(-n2ncc3c(=O)n(CC4(O)CCN(C(=O)c5ccc(F)cc5)CC4)cnc32)c1 [Compound I-621],1000 to 10000
11,COc1ccc(-n2ncc3c(=O)n(C(C)C4(O)CCN(C(=O)c5ccc(F)cc5)CC4)cnc32)cc1 (stereo not drawn) [Compound I-624],200 to 1000
12,COc1ccc(C(=O)N2CCC(O)(C(C)n3cnc4c(cnn4-c4ccc(OC)cc4)c3=O)CC2)cc1 (stereo not drawn) [Compound I-625],1000 to 10000
13,COc1cc(-n2ncc3c(=O)n(CC4(O)CCN(C(=O)c5ccc(F)cc5)CC4)cnc32)ccc1F [Compound I-627],1000 to 10000
14,O=C(c1ccc(F)cc1)N1CCC(O)(Cn2cnc3c(cnn3-c3ccc(F)c(O)c3)c2=O)CC1 [Compound I-632],1000 to 10000
15,COC1(C)CCN(c2cc(-n3ncc4c(=O)n(CC5(O)CCN(C(=O)C6CC6)CC5)cnc43)ccc2F)C1 (stereo not drawn) [Compound I-633],1000 to 10000
16,CN1CCN(c2cc(-n3ncc4c(=O)n(CC5(O)CCN(C(=O)c6ccccc6)CC5)cnc43)ccc2F)CC1 [Compound I-634],1000 to 10000
17,Nc1cc(-n2ncc3c(=O)n(CC4(O)CCN(C(=O)c5ccc(F)cc5)CC4)cnc32)ccc1F [Compound I-635],1000 to 10000
18,CC1(O)CCN(c2cc(-n3ncc4c(=O)n(CC5(O)CCN(C(=O)C6CC6)CC5)cnc43)ccc2F)C1 (stereo not drawn) [Compound I-636],200 to 1000
19,C[C@]1(O)CCN(c2cc(-n3ncc4c(=O)n(CC5(O)CCN(C(=O)C6CC6)CC5)cnc43)ccc2F)C1 [Compound I-637],200 to 1000
20,C[C@@]1(O)CCN(c2cc(-n3ncc4c(=O)n(CC5(O)CCN(C(=O)C6CC6)CC5)cnc43)ccc2F)C1 [Compound I-638],200 to 1000
21,O=C(c1ccc(F)cc1)N1CCC(O)(Cn2cnc3c(cnn3-c3ccc(F)c(N4CCOCC4)c3)c2=O)CC1 [Compound I-639],1000 to 10000
22,O=C(c1ccc(F)cc1)N1CCC(O)(Cn2cnc3c(cnn3-c3ccc(F)c(CO)c3)c2=O)CC1 [Compound I-640],1000 to 10000
23,O=C(c1ccc(OC(F)F)cc1)N1CCC(O)(Cn2cnc3c(cnn3-c3ccc(F)c(CO)c3)c2=O)CC1 [Compound I-641],1000 to 10000

# Reference: patent US9902728B2, “Pyrrolo and pyrazolopyrimidines as ubiquitin-specific protease 7 inhibitors” (Forma Therapeutics, Inc., priority 2014, dated 2018)
